The record followed here is patent US6395711B1, “Macrolides with antitumor activity” (priority 1997, dated 2002).

≈ marks a conversion by molar mass, not a printed value. Entries after “also recorded” stand apart in the source; their conditions may differ. Read-outs that look alike come from different tables or passages of the source. A value given as a limit tells only on which side of the number the result lay.

Test [1] relates to A-549 (monolayer culture of a human macrocytic lung carcinoma). The test can be described thus: In vitro antitumor activity, A-549 cells. The test is classed as cell-based. The text has this:
(§1) The antitumor activity has been deteced in vitro by culturing the tumor cells following the methodology described by Bergeron, et al.(2), and by Schroeder, et al. (6). Activity against several human tumors as leukaemia, colon carcinoma, NSC lung carcinoma, melanoma, and the like has been observed.
(§2) Biological activity: the antitumor cells employed have been P-388 (suspension culture of a lymphoid neoplasm from DBA/2 mouse), A-549 (monolayer culture of a human macrocytic lung carcinoma, HT-29 (monolayer culture of a human colon carcinoma), and MEL-28 (monolayer culture of a human melanoma), and the other indicated cell lines.
(§3) P-388 cells were seeded into 16 mm wells at 1×10^4 cells per well in 1 ml aliquots of MEM 5FCS containing the indicated concentration of drug. A separate set of cultures without drug were seeded as control of growth to ensure that cells remained in exponential phase of growth. All determinations were carried out duplicated. After three days of incubation at 37° in 10% CO2 atmosphere with 98% humidity, the wells were stained with 0.1% Crystal Violet. The IC50 was calculated by comparing the growth in wells with drug with the growth in control wells without the drug.
(§4) In Table 5 are presented the activity expressed as IC50 in mcg/ml

For test [2], the system named is several mammalian cancer cell lines. The test can be described thus: In vitro antitumor activity, several mammalian cancer cell lines. The class given is cell-based.
Source text: as §1

The subject of test [3] is HT-29 (monolayer culture of a human colon carcinoma). In words: In vitro antitumor activity, HT-29 cells. The class given is cell-based.
Source text: as §1, §2, §3, §4

Test [4] has as its system CV1. In words: In vitro activity, CV1 cells. The class given is cell-based. The settings on record: Cercopithecidae, CV-1.
Source text: as §1, §2, §3, §4

In test [5] the test system is MEL-28 (monolayer culture of a human melanoma). In words: In vitro antitumor activity, MEL-28 cells. The class given is cell-based.
Source text: as §1, §2, §3, §4

Test [6] deals with P-388 (suspension culture of a lymphoid neoplasm from DBA/2 mouse). The test can be described thus: In vitro antitumor activity, P-388 cells. The class given is cell-based. Particulars: for IC50: Mus musculus, P388, 72 h, read-out: IC50 P-388.
Source text: as §1, §2, §3, §4

Test [7] relates to P388MDR. In words: In vitro antitumor activity, P388MDR cells. The class given is cell-based, murine.
Source text: as §1, §2, §3, §4

[8] abbreviates: three days of incubation, Crystal Violet.

With `CCCC1(O)C(O)C(C)C/C=C/C=C/C(CC(C)O)CCC2OC3(CCC(C)C(C(C)C(O)CC)O3)C(C)C(OC(=O)/C=C/C(C)C(O)C(C)C(O)C(O)C(O)C(O)C1O)C2C` (centres unmarked) [IB-96212B], the IC50 worked out at 1 µg/mL (≈ 1.13 µM) in test [1] (Homo sapiens, A549; read-out: IC50 A-549); 1.2 µg/mL (≈ 1.36 µM) in test [3] (Homo sapiens, HT-29; read-out: IC50 HT-29); 0.001 µg/mL (≈ 0.00113 µM) in test [4]; 1 µg/mL (≈ 1.13 µM) in test [5] (Homo sapiens, SK-MEL-28; read-out: IC50 MEL-28); 0.001 µg/mL (≈ 0.00113 µM) in test [6] (setting [8]). In addition, the “antitumor activity against several mammalian cancer cell lines (in words)” value in test [2] is given as “activity comparable to the parent IB-96212; also recorded: good antitumor actvity”.
As to `CC(=O)O[C@H]1C(=O)[C@@]2(C)[C@H]([C@H](OC(=O)c3ccccc3)[C@]3(O)C[C@H](OC(=O)[C@H](O)[C@@H](NC(=O)c4ccccc4)c4ccccc4)C(C)=C1C3(C)C)[C@]1(OC(C)=O)CO[C@@H]1C[C@@H]2O` [taxol], the 50% inhibitory concentration (IC50) is 0.002 µg/mL (≈ 0.00234 µM) in test [1] (Homo sapiens, A549, read-out: IC50 A-549); 0.002 µg/mL (≈ 0.00234 µM) in test [3] (Homo sapiens, HT-29, read-out: IC50 HT-29); above 2 µg/mL in test [7] (Mus musculus); 0.002 µg/mL (≈ 0.00234 µM) in test [5] (Homo sapiens, SK-MEL-28, read-out: IC50 MEL-28); 0.2 µg/mL (≈ 0.234 µM) in test [6].
For the compound `N.N.[Cl][Pt][Cl]` [cis-platin], the “IC50 A-549” value in test [1] is 2.5 µg/mL. The “IC50 HT-29” value in test [3] was 5 µg/mL. Moreover, the “IC50 P388MDR” value in test [7] was 2.5 µg/mL. Moreover, the “IC50 MEL-28” value in test [5] turned out to be 2.5 µg/mL. Further, the “IC50 P-388” value in test [6] (setting [8]) stood at 2.5 µg/mL.
On to `COc1cc([C@@H]2c3cc4c(cc3[C@@H](O[C@@H]3O[C@@H]5CO[C@@H](C)O[C@H]5[C@H](O)[C@H]3O)[C@H]3COC(=O)[C@H]23)OCO4)cc(OC)c1O` [etopoxide], for which the “IC50 A-549” value in test [1] amounted to 0.1 µg/mL (≈ 0.17 µM). Also, the “IC50 HT-29” value in test [3] worked out at 1 µg/mL (≈ 1.7 µM). Moreover, in test [7], the “IC50 P388MDR” value was determined as 10 µg/mL (≈ 17 µM). Also, the “IC50 MEL-28” value in test [5] was found to be 0.5 µg/mL (≈ 0.85 µM). For the same compound, the “IC50 P-388” value in test [6] (setting [8]) was determined as 0.1 µg/mL (≈ 0.17 µM).
For `COc1cccc2c1C(=O)c1c(O)c3c(c(O)c1C2=O)C[C@@](O)(C(=O)CO)C[C@@H]3O[C@H]1C[C@H](N)[C@H](O)[C@H](C)O1` [adriamicin], in test [1], the “IC50 A-549” value came to 0.002 µg/mL (≈ 0.00368 µM). For the same compound, the “IC50 HT-29” value in test [3] turned out to be 0.05 µg/mL (≈ 0.092 µM). For the same compound, the “IC50 P388MDR” value in test [7] was 1 µg/mL (≈ 1.84 µM). In addition, the “IC50 MEL-28” value in test [5] came to 0.02 µg/mL (≈ 0.0368 µM). The “IC50 P-388” value in test [6] (setting [8]) was determined as 0.02 µg/mL (≈ 0.0368 µM).
